Consider nine molecules from patent US20260022143A1, “Cyclic Peptide Inhibitors of IL-23” (JANSSEN PHARMACEUTICA NV, priority 2022, published 2026).

The structures appear in SMILES notation. Where a name gives a salt, the structure may show the parent alone. Starred links: 1 amine or outer side, 2 acyl side, 3 side chain; linkers in the order of their positions; H or OH if unused. Positions of bridges follow the written chain, without caps; N, C: chain ends. Non-standard residues stand in square brackets, D forms with d. Residues, ends and D or L forms follow the SMILES beside them. *: point of attachment. X33 = C[N+](C)(C)CCCCc1cn(-c2ccc(C[C@H](N[*:1])C(=O)[*:2])cc2)nn1; Me3N+(CH2)2O(CH2)2O(CH2)2CO = C[N+](C)(C)CCOCCOCCC(=O)*; Trp(7-Me) = Cc1cccc2c(C[C@H](N)C(=O)O)c[nH]c12; PEG9 = NCCOCCOCCOCCOCCOCCOCCOCCOCCOCCC(=O)O; Lys(Me3) = C[N+](C)(C)CCCC[C@H](N)C(=O)O; X29 = O=C([C@H](CCn1ncnn1)N[*:1])[*:2]; 2Nal = N[C@@H](Cc1ccc2ccccc2c1)C(=O)O; AEF = NCCOc1ccc(C[C@H](N)C(=O)O)cc1; dNMeY = CN[C@H](Cc1ccc(O)cc1)C(=O)O; X10 = C[N+](C)(C)C[C@H](CC(=O)O)N*; 3Pal = N[C@@H](Cc1cccnc1)C(=O)O; Lys(Me) = CNCCCC[C@H](N)C(=O)O; Pen = CC(C)(S)[C@H](N)C(=O)O; αMeK = C[C@](N)(CCCCN)C(=O)O; Thp = NC1(C(=O)O)CCOCC1; Me2NCH2CH2 = CN(C)CC*; Tfa = O=C(C(F)(F)F)*; Sar = CNCC(=O)O

The data set is described as follows: Exposed Polar Surface Area (EPSA). The data set is classed as physicochemical. The settings on record: SFC on Chirex 3014 column; sample 1 mM DMSO stock; read-out: EPSA. From the text: Exposed Polar Surface Area (EPSA) is an experimental descriptor of molecular polarity obtained from chromatographic retention in supercritical fluid chromatography (SFC).
The stationary phase (Chirex 3014(S)-valine and (R)-1-(alpha-naphthyl) ethylamine) was selected for its balance of lipophilic and polar attributes and its capacity to separate compounds with wide polarity differences. The mobile phase consists of methanol (+Ammonium formate) and CO2. Polar compounds are retained stronger under these conditions and a low-slope gradient of methanol achieves elution based on increasing polarity of the mobile phase. Results are normalized using calibration standards generating a linear relationship between retention times and EPSA values. The unit of EPSA is Å^2.
Along with the measurement of compounds of interest, a series of 8 calibration standards (see Materials) are analyzed generating a linear relationship between retention times and EPSA value. The 8 compounds used as calibration standard have their own EPSA value defined by G. Goetz based on the comparison with TPSA (see G. Goetz, L. Philippe and M. Shapiro, “EPSA: A novel supercritical fluid chromatography technique enabling the design of permeable cyclic peptides,” ACS Med. Chem. Lett., vol. 5, pp. 1167-1172, 2014 for more information). The slope from the linear relationship between EPSA values of these eight compounds and their retention times is used to determine the EPSA value of each compound of interest that's measured under the same condition using the equation as below: […]
The mixture of calibrations standard is reinjected every 20 compounds to validate the stability of the retention time.
The mobile phase modifier consists of ammonium formate LC_MS grade (>99%) (CAS number 540-69-2) diluted to 20 mM in HPLC grade Methanol (MeOH, CAS number 67-56-1) and liquid C02 SFC grade (CAS number 124-38-9).
Antipyrine (CAS number: 60-80-0) Chlorpromazine hydrochloride (CAS number: 69-09-0), desipramine hydrochloride (CAS number: […]), pindolol (CAS Number: 13523-86-9), diclofenac (CAS number: 15307-79-6)), m-nitro benzoic acid (CAS number: 121-92-6), bumetanide (CAS number: 28395-03-1), furosemide (CAS number: 54-31-9) were purchased from Sigma Aldrich (Steihneim, Germany).
All analyses were performed on a ultra performance convergence chromatography (UPC™) apparatus (Waters, Milford, MA, USA) equipped with a sample manager, a binary solvent delivery pump (BSM), a column manager, a convergence manager (automated back pressure regulator), a photo diode array detector (DAD) with a high pressure flow cell, and a mass detector simple quadrupole QDa. After the UV detector, the effluent of the SFC was mixed with an eluent consist of mixture MeOH/water (+0.3% Ammonia) 95/5 delivered by a make up pump with a flow rate of 0.4 mL/min and then split to the QDa using a splitter. The instrument was controlled, and data were processed with Masslynx 4.1.
The Analyses were performed using a 4.6×50 mm Chirex 3014(S)-valine and (R)-1-(alpha- naphthyl) ethylamine column (Phenomenex, Le Pecq, France) with 5 um particle and 100A pore size. The flow rate was 4 mL/min with the outlet pressure set to 14 MPa. The injection volume was 2 μL. the mobile phase composition was varied from 5% to 60% modifier at 20%/ min in a linear gradient, holding at 60% for 1.45 min and reverting to the original 5% until the end of the run. Data are acquired during 5 min. An equilibration time of 1 min is applied between 2 injections resulting in an injection every 6 min. each sample is analyzed in duplicate, resulting in a sample to sample turnaround time of 12 min.
The column temperature was set to 35° C. The mass detector was used in full scan from 100 to 800 for small molecules and from 500 to 1200 for peptides.
Each sample is delivered by compound logistics from DMSO stock solution without dilution. The concentration is 1 mM and the volume is 60 μL.
On to `CC(=O)N(C)CCCC[C@@H]1NC(=O)[C@H](Cc2c[nH]c3c(C)cccc23)NC(=O)[C@H]([C@@H](C)O)NC(=O)[C@H](CC(=O)N(C)C)NC(=O)[C@@H](NC(=O)[C@H](CCCC[N+](C)(C)C)NC(=O)C(F)(F)F)C(C)(C)SSC(C)(C)[C@@H](C(=O)N[C@@H](Cc2ccc(OCCN(C)C)cc2)C(=O)N[C@@H](Cc2ccc3ccccc3c2)C(=O)NC2(C(=O)N[C@@H](CCC(=O)O)C(=O)N[C@@H](CC(N)=O)C(=O)N[C@@H](Cc3cccnc3)C(=O)N(C)CC(=O)N(C)C)CCOCC2)NC1=O` [compound 93, CF3CO-K(Me)3-Pen(3)-N(N(Me)2)-T-7MeW-K(NMeAc)-Pen(3)-AEF(N(Me)2)-2Nal-THP-E-N-3Pya-Sar-CON(Me)2] (Tfa-[Lys(Me3)][Pen]D(NMe2)T[Trp(7-Me)][Lys(Me)](Ac)[Pen]Y(Me2NCH2CH2)[2Nal][Thp]EN[3Pal][Sar]-NMe2; disulfide 2-7), for which the EPSA is 151 A^2.

Take `CC(=O)N(C)CCCC[C@@H]1NC(=O)[C@H](Cc2c[nH]c3c(C)cccc23)NC(=O)[C@H]([C@@H](C)O)NC(=O)[C@H](CC(=O)N(C)C)NC(=O)[C@@H](NC(=O)CCOCCOCC[N+](C)(C)C)C(C)(C)SSC(C)(C)[C@@H](C(=O)N[C@@H](Cc2ccc(-n3cc(CCCC[N+](C)(C)C)nn3)cc2)C(=O)N[C@@H](Cc2ccc3ccccc3c2)C(=O)NC2(C(=O)N[C@@H](CCCCN(C)C(C)=O)C(=O)N[C@@H](CC(N)=O)C(=O)N[C@@H](Cc3cccnc3)C(=O)N(C)CC(=O)N(C)C)CCOCC2)NC1=O` [compound 302, cPEG3aCO-Pen(3)-N(N(Me)2)-T-7MeW-K(NMeAc)-Pen(3)-F(4TzlTMA4)-] ({Me3N+(CH2)2O(CH2)2O(CH2)2CO}-[Pen]D(NMe2)T[Trp(7-Me)][Lys(Me)](Ac)[Pen][X33][2Nal][Thp][Lys(Me)](Ac)N[3Pal][Sar]-NMe2; disulfide 1-6): the EPSA came out at 155 A^2.

On to `CC(=O)NCCCC[C@@H]1NC(=O)[C@H](Cc2c[nH]c3c(C)cccc23)NC(=O)[C@H]([C@@H](C)O)NC(=O)[C@H](CC(N)=O)NC(=O)[C@@H](NC(C)=O)C(C)(C)SSC(C)(C)[C@@H](C(=O)N[C@@H](Cc2ccc(OCC3CCC([N+](C)(C)C)CC3)cc2)C(=O)N[C@@H](Cc2ccc3ccccc3c2)C(=O)NC2(C(=O)N[C@@H](CCCCNC(C)=O)C(=O)N[C@@H](CC(N)=O)C(=O)N[C@@H](Cc3cccnc3)C(=O)N(C)CC(N)=O)CCOCC2)NC1=O` (single isomer, unassigned) [compound 530, MeCO-Pen(3)-N-T-7MeW-K(Ac)-Pen(3)-ACHMF(S*, S*)-2Nal-THP-K(Ac)-N-3Pya-Sar-CONH2], for which the EPSA was 166 A^2.

Turning to `CC(=O)NCCCC[C@@H]1NC(=O)[C@H](Cc2c[nH]c3c(C)cccc23)NC(=O)[C@H]([C@@H](C)O)NC(=O)[C@H](CC(N)=O)NC(=O)[C@@H](NC(C)=O)C(C)(C)SSC(C)(C)[C@@H](C(=O)N[C@@H](Cc2ccc(OCCN)cc2)C(=O)N[C@@H](Cc2ccc3ccccc3c2)C(=O)N[C@@](C)(CCCCN)C(=O)N[C@H](CCCCNC(C)=O)C(=O)N[C@@H](CC(N)=O)C(=O)N[C@H](CCCCN)C(=O)N(C)[C@H](Cc2ccc(O)cc2)C(N)=O)NC1=O` [compound 5, MeCO-Pen(3)-N-T-7MeW-K(Ac)-Pen(3)-AEF-2Nal-aMeK-k(Ac)-N-dK-NMeDTyr-CONH2] (Ac-[Pen]NT[Trp(7-Me)]K(Ac)[Pen][AEF][2Nal][αMeK][dK](Ac)N[dK][dNMeY]-NH2; disulfide 1-6), the EPSA amounted to 168 A^2.

On to `CC(=O)NCCCC[C@@H]1NC(=O)[C@H](Cc2c[nH]c3c(C)cccc23)NC(=O)[C@H]([C@@H](C)O)NC(=O)[C@H](CC(N)=O)NC(=O)[C@@H](NC(=O)[C@@H](CCCNC(=N)N)NC(=O)CCOCCOCCOCCOCCOCCOCCOCCOCCOCCNC(C)=O)C(C)(C)SSC(C)(C)[C@@H](C(=O)N[C@@H](Cc2ccc(OCCN)cc2)C(=O)N[C@@H](Cc2ccc3ccccc3c2)C(=O)NC2(C(=O)N[C@@H](CCC(=O)O)C(=O)N[C@@H](CC(N)=O)C(=O)N[C@@H](Cc3cccnc3)C(=O)N(C)CC(N)=O)CCOCC2)NC1=O` [compound 43] (Ac-[PEG9][dR][Pen]NT[Trp(7-Me)]K(Ac)[Pen][AEF][2Nal][Thp]EN[3Pal][Sar]-NH2; disulfide 3-8), for which the EPSA worked out at 173 A^2.

As for `CC(=O)NCCCC[C@@H]1NC(=O)[C@H](Cc2c[nH]c3c(-c4cccc(NC(C)=O)c4)cccc23)NC(=O)[C@H]([C@@H](C)O)NC(=O)[C@H](CC(N)=O)NC(=O)[C@@H](NC(C)=O)C(C)(C)SSC(C)(C)[C@@H](C(=O)N[C@@H](Cc2ccc(OCCNC(=N)N)cc2)C(=O)N[C@@H](Cc2ccc3ccccc3c2)C(=O)NC2(C(=O)N[C@@H](CCCCN(C)C(C)=O)C(=O)N[C@@H](CC(N)=O)C(=O)N[C@@H](Cc3cncc(C)c3)C(=O)N(C)CC(N)=O)CCOCC2)NC1=O` [compound 482, MeCO-Pen(3)-N-T-7(3NAcPh)W-K(Ac)-Pen(3)-AEF(G)-2Nal-THP-K(NMeAc)-N-5MePyridinAla-Sar-CONH2], the EPSA was found to be 180 A^2.

As to `CC(=O)NCCCC[C@@H]1NC(=O)[C@H](Cc2c[nH]c3c(C)cccc23)NC(=O)[C@H]([C@@H](C)O)NC(=O)[C@H](CC(N)=O)NC(=O)[C@@H](NC(=O)C(F)(F)F)C(C)(C)SSC(C)(C)[C@@H](C(=O)N[C@@H](Cc2ccc(OCCN)cc2)C(=O)N[C@@H](Cc2ccc3ccccc3c2)C(=O)NC2(C(=O)N[C@@H](CCn3ncnn3)C(=O)N[C@@H](CC(N)=O)C(=O)N[C@@H](Cc3cccnc3)C(=O)N(C)CC(N)=O)CCOCC2)NC1=O` [compound 77] (Tfa-[Pen]NT[Trp(7-Me)]K(Ac)[Pen][AEF][2Nal][Thp][X29]N[3Pal][Sar]-NH2; disulfide 1-6), the EPSA is 161 A^2.

With `CCCCCCCCCCCC(=O)N[C@@H](CCC(=O)NCCOCCOCC(=O)NCCOCCOCC(=O)NC(COCCOCC[N+](C)(C)C)C(=O)N[C@@H]1C(=O)N[C@@H](CC(=O)N(C)C)C(=O)N[C@@H]([C@@H](C)O)C(=O)N[C@@H](Cc2c[nH]c3c(C)cccc23)C(=O)N[C@@H](CCCCN(C)C(C)=O)C(=O)N[C@H](C(=O)N[C@@H](Cc2ccc(OCCOCCOCC[N+](C)(C)C)cc2)C(=O)N[C@@H](Cc2ccc3ccccc3c2)C(=O)NC2(C(=O)N[C@@H](CCCCN(C)C(C)=O)C(=O)N[C@@H](CC(N)=O)C(=O)N[C@@H](Cc3cccnc3)C(=O)N(C)CC(=O)N(C)C)CCOCC2)C(C)(C)SSC1(C)C)C(=O)O` (relative stereo) [compound 366, C12gEPEG2PEG2CO-APEG2Ser(S*)-Pen(3)-N(N(Me)2)-T-7MeW-K(NMeAc)-Pen(3)-APEG3F-2Nal-THP-K(NMeAc)-N-3Pya-Sar-CON(Me)2], the EPSA was 162 A^2.

As for `CC(=O)NCCCC[C@@H]1NC(=O)[C@H](Cc2c[nH]c3c(C)cccc23)NC(=O)[C@H]([C@@H](C)O)NC(=O)[C@H](CC(N)=O)NC(=O)[C@@H](NC(=O)[C@@H](CCC(=O)N[C@@H](CC(=O)O)C[N+](C)(C)C)NC(C)=O)C(C)(C)SSC(C)(C)[C@@H](C(=O)N[C@@H](Cc2ccc(OCCN)cc2)C(=O)N[C@@H](Cc2ccc3ccccc3c2)C(=O)NC2(C(=O)N[C@@H](CCCCNC(C)=O)C(=O)N[C@@H](CC(N)=O)C(=O)N[C@@H](Cc3cccnc3)C(=O)N(C)CC(N)=O)CCOCC2)NC1=O` [compound 126] (Ac-[dE](X10)[Pen]NT[Trp(7-Me)]K(Ac)[Pen][AEF][2Nal][Thp]K(Ac)N[3Pal][Sar]-NH2; disulfide 2-7), the EPSA was 184 A^2.
